The target in one test is T1, human V1a receptor (Homo sapiens, UniProt P37288).
T1 construct: host or cells: CHO cells
Put plainly: Human vasopressin V1a receptor binding assay (3H-AVP competition, hV1a cell line). The following applies: CHO cells expressing human V1a, 1 nM 3H-AVP; for IC50: read-out: V1a Binding Affinity IC50; for Ki: read-out: V1a Ki. How it is done: Human vasopression V1a receptor binding assay. A cell line expressing the human V1a receptor in CHO cells (henceforth referred to as the hV1a cell line) was obtained from Dr. Michael Brownstein, NIMH, Bethesda, Md., USA. The hV1a cDNA sequence is described by Thibonnier et al., Journal of Biological Chemistry, 269, 3304-3310 (1994), and the expression method was the same as described by Morel et al. (1992). The hV1a cell line was grown in alpha-MEM with 10% fetal bovine serum and 250 ug/ml G418 (Gibco, Grand Island, N.Y., USA). For competitive binding assay, hV1a cells were plated into 6-well culture plate at 1:10 dilution from a confluency flask, and maintained in culture for at least two days. Culture medium was then removed, cells were washed with 2 ml binding buffer (25 mM Hepes, 0.25% BSA, 1×DMEM, PH=7.0). To each well, 990 μl binding buffer containing 1 nM 3H-AVP was added, and followed by 10 μl series diluted Example compounds dissolved in DMSO. […] 100 nM cold AVP (Sigma) was used to assess non-specific binding. Cells were incubated for 45 minutes at 37° C., assay mixture was removed and each well was washed three times with PBS (pH=7.4). 1 ml 2% SDS was added per well and plates were let sit for 30 minutes. The whole content in a well was transferred to a scintillation vial. Each well was rinsed with 0.5 ml PBS which was then added to the corresponding vial. Scintillation fluid (Ecoscint, National Diagnostics, Atlanta, Ga.) was then added at 3 ml per vial. Samples were counted in a liquid scintillation counter (Beckman LS3801). IC50 values were calculated by Prism Curve fitting software.
All of the alkanedioic esters and amides exemplified in the foregoing examples dissolved in DMSO were tested in this assay. Binding curves were generated according to methods described by Thibonnier et al. (1994). [^3H]-AVP was added to the hV1a cell cultures followed by 10-fold dilutions of each test compound.

The test system of a further test is C57B1/6J males. Put plainly: Social Interaction Test after chronic social subjugation. It counts as in vivo, mouse. The following applies: for Distance (traveled in the interaction zone, difference score Post-Pretest) / Time (in the interaction zone, difference score Post-Pretest): mice after 10 day defeat, daily i.p. for 28 days, AVN246-HCl 2 mg/kg, chlordiazepoxide 10 mg/kg. From the text:
Mouse Chronic Subordination Model of Depression. Social stress is a factor in the etiology of several psychopathologies, with individuals differing in vulnerability. Adult male mice are subjected to a model of chronic psychosocial stress in which resident/intruder dyads live chronically in sensory contact and physically interact on a daily basis.
Anti-depressant Effect in the Social Interaction Test. […] A rapid subjugation paradigm in mice lead to diminished social interaction behavior, where the dependent measures are distance traveled and time in the Interaction Zone. […] These observations are consistent with the subordination/social interaction model as a rapid behavioral screen for potential antidepressants. Additional details are described in Berton et al. (2006).
Briefly, C57B1/6J males were defeated daily for 10 days by resident, highly aggressive CF-1 males. After 5 minutes of direct exposure, a perforated plastic partition was inserted into the cage that allowed olfactory and visual contact without physical defeat for the remaining 23 hr 55 min each day. The C57 males were exposed to a different resident male in a different cage each day to increase the stress of the procedure (it was observed that all CF-1 males attacked the intruder each day). At the end of the 10 day defeat procedure, the C57 males were tested in an open field apparatus during the dark phase. A dominant male was caged in an area of the open field apparatus termed the “social interaction zone.” Time and distance traveled in the zone were recorded. The C57 males were then divided randomly among the following treatments: AVN246-HCl (2 mg/kg), saline vehicle (0.45%), or chlordiazepoxide (10 mg/kg). Treatments were given daily (i.p.) for 28 days and the animals were retested. Behavioral changes were determined by calculating difference scores (Post-Pretest) and these scores were analyzed.

Molecules are shown by their SMILES.

A word on the IC50: it is the concentration that gives 50% inhibition. Usually Ki stands for the dissociation constant of the complex between target and ligand, obtained from inhibition or displacement.

T1 sequence (P37288 whole entry): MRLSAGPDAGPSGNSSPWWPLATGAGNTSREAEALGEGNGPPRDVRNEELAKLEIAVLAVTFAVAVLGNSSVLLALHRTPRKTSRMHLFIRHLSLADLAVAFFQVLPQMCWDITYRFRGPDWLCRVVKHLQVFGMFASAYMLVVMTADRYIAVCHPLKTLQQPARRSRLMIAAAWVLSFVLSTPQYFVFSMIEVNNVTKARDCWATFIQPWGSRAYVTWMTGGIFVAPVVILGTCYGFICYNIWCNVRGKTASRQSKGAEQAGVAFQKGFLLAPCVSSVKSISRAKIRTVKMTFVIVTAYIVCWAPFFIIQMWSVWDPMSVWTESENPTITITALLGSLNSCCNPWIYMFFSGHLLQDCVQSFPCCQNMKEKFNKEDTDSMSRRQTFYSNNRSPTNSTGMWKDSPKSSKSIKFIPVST

In the case of `O=C(CCC(C(=O)NCc1cccc(C(F)(F)F)c1)N1C(=O)C(N2C(=O)OCC2c2ccccc2)C1C=Cc1ccccc1)NCCN1CCCCC1` (stereo not shown) [Example 87], the IC50 at human V1a receptor turned out to be 15 nM.
As for `O=C(NCc1cccc(C(F)(F)F)c1)[C@H](CCC(=O)N1CCN(C2CCCCC2)CC1)N1C(=O)[C@@H](N2C(=O)OC[C@@H]2c2ccccc2)[C@H]1/C=C/c1ccccc1` [Example 120H], on human V1a receptor, the IC50 was 2.75 nM and the Ki stood at 1.68 nM.
On to `O=C(NCc1ccccc1C(F)(F)F)[C@H](CCC(=O)N1CCN(C2CCCCC2)CC1)N1C(=O)[C@@H](N2C(=O)OC[C@@H]2c2ccccc2)[C@H]1/C=C/c1ccccc1` [Example 182], for which the Ki on human V1a receptor was found to be 0.93 nM.
As for `O=C(N[C@@H]1CCCc2ccccc21)[C@H](CCC(=O)N1CCN(C2CCCCC2)CC1)N1C(=O)[C@@H](N2C(=O)OC[C@@H]2c2ccccc2)[C@H]1/C=C/c1cccs1` [Example 255], at human V1a receptor, the IC50 amounted to 1.9 nM and the Ki stood at 1.2 nM.
For the compound `CC(NC(=O)C(CC(=O)N1CCC(N2CCCCC2)CC1)N1C(=O)C(N2C(=O)OCC2c2ccccc2)C1C=Cc1ccccc1)c1ccccc1.Cl` (stereo not shown) [AVN246-HCl], in the test with C57B1/6J males, the “Distance (traveled in the interaction zone, difference score Post-Pretest)” value is 22 ± 6 and the “Time (in the interaction zone, difference score Post-Pretest)” value came out at 35 ± 10. For the same compound, in the test with C57B1/6J males (mice, 28-day treatment regimen), the “effect on deficits in social interaction produced by chronic subordination” value was “significantly increased both distance traveled and time in the interaction zone”.
Consider `O=C(NCc1cc(F)cc(C(F)(F)F)c1)[C@H](CCC(=O)N1CCN(C2CCCCC2)CC1)N1C(=O)[C@@H](N2C(=O)OC[C@@H]2c2ccccc2)[C@H]1/C=C/c1ccccc1` [Example 179], for which the Ki at human V1a receptor was found to be 0.51 nM.
Turning to `O=C(NC1CCc2ccccc21)C(CCC(=O)N1CCN(C2CCCCC2)CC1)N1C(=O)C(N2C(=O)OCC2c2ccccc2)C1C=Cc1ccccc1` (mixture of isomers) [Example 216], at human V1a receptor, the IC50 was 1.83 nM and the Ki turned out to be 1.12 nM.
With `CNC1=Nc2ccc(Cl)cc2C(c2ccccc2)=[N+]([O-])C1` [CDP, chlordiazepoxide], in the test on C57B1/6J males, the “Distance (traveled in the interaction zone, difference score Post-Pretest)” value is recorded as 1.0 ± 5 and the “Time (in the interaction zone, difference score Post-Pretest)” value is listed as 0.0 ± 5^.
Turning to `CCCCN(Cc1ccccc1)C(=O)[C@H](CCC(=O)N1CCN(C2CCCCC2)CC1)N1C(=O)[C@@H](N2C(=O)OC[C@@H]2c2ccccc2)[C@H]1/C=C/c1ccccc1` [Example 198], the IC50 on human V1a receptor is roughly 100 nM.
With `O=C(NCc1cc(C(F)(F)F)ccc1F)[C@H](CCC(=O)N1CCN(C2CCCCC2)CC1)N1C(=O)[C@@H](N2C(=O)OC[C@@H]2c2ccccc2)[C@H]1/C=C/c1ccccc1` [Example 177], the Ki on human V1a receptor came to 0.41 nM.
As to `O=C(N[C@@H]1CCCc2ccccc21)[C@H](CCC(=O)N1CCN(C2CCCCC2)CC1)N1C(=O)[C@@H](N2C(=O)OC[C@@H]2c2ccccc2)[C@H]1/C=C/c1ccco1` [Example 254], at human V1a receptor, the IC50 was found to be 10 nM and the Ki was 6.2 nM.
Take `O=C(C(COCc1ccccc1)N1C(=O)C(N2C(=O)OCC2c2ccccc2)C1C=Cc1ccccc1)N1CCC(CN2CCCCC2)CC1` (stereo not shown) [Example 233A]: at human V1a receptor, the Ki was 11.6 nM.
Take `O=C(NCc1cccc(C(F)(F)F)c1F)[C@H](CCC(=O)N1CCN(C2CCCCC2)CC1)N1C(=O)[C@@H](N2C(=O)OC[C@@H]2c2ccccc2)[C@H]1/C=C/c1ccccc1` [Example 180]: at human V1a receptor, the Ki was 0.2 nM.
For the compound `O=C(NCc1cccc(C(F)(F)F)c1)C(CC(=O)N1CCN(CCN2CCCC2)CC1)N1C(=O)C(N2C(=O)OCC2c2ccccc2)C1C=Cc1ccccc1` (stereo not shown) [Example 78], on human V1a receptor, the IC50 was less than 100 nM.
In the case of `O=C(NCc1cc(C(F)(F)F)cc(C(F)(F)F)c1)[C@H](CCC(=O)N1CCN(C2CCCCC2)CC1)N1C(=O)[C@@H](N2C(=O)OC[C@@H]2c2ccccc2)[C@H]1/C=C/c1ccccc1` [Example 188], the Ki at human V1a receptor came out at 4.45 nM.
With `O=C(NCc1cc(Cl)cc(Cl)c1)[C@H](CCC(=O)N1CCN(C2CCCCC2)CC1)N1C(=O)[C@@H](N2C(=O)OC[C@@H]2c2ccccc2)[C@H]1/C=C/c1ccccc1` [Example 185], at human V1a receptor, the IC50 stood at 1.27 nM and the Ki was determined as 0.82 nM.
As to `CC(C(=O)NCc1cccc(C(F)(F)F)c1)(C(=O)N1CCC(N2CCCCC2)CC1)N1C(=O)[C@@H](N2C(=O)OC[C@@H]2c2ccccc2)[C@H]1/C=C/c1ccccc1` (mixture of isomers) [Example 234, (2RS)-[4-(piperidinyl)piperidinylcarbonyl]-2-methyl-2-[3(S)-(4(S)-phenyloxazolidin-2-on-3-yl)-4(R)-(2-styryl)azetidin-2-on-1-yl]acetic acid N-(3-trifluoromethylbenzyl)amide], at human V1a receptor, the IC50 worked out at 2.37 nM and the Ki stood at 1.45 nM.
With `O=C(NCc1cccc(Cl)c1Cl)[C@H](CCC(=O)N1CCN(C2CCCCC2)CC1)N1C(=O)[C@@H](N2C(=O)OC[C@@H]2c2ccccc2)[C@H]1/C=C/c1ccccc1` [Example 176], at human V1a receptor, the Ki was determined as 0.38 nM.
For the compound `O=C(NCc1cccc(C(F)(F)F)c1)[C@H](CCC(=O)N1CCC(CN2CCCCC2)CC1)N1C(=O)[C@@H](N2C(=O)OC[C@@H]2c2ccccc2)[C@H]1/C=C/c1ccccc1` [Example 120E], on human V1a receptor, the IC50 came to 3.2 nM and the Ki was 1.95 nM.
Turning to `CN(Cc1cccc(C(F)(F)F)c1)C(=O)[C@@H](CC(=O)N1CCC(N2CCCCC2)CC1)N1C(=O)[C@@H](N2C(=O)OC[C@@H]2c2ccccc2)[C@H]1/C=C/c1cccc(Cl)c1` [Example 247], at human V1a receptor, the IC50 was 0.6 nM and the Ki was 0.39 nM.
On to `O=C(NCc1cccc(Cl)c1)[C@H](CCC(=O)N1CCN(C2CCCCC2)CC1)N1C(=O)[C@@H](N2C(=O)OC[C@@H]2c2ccccc2)[C@H]1/C=C/c1ccccc1` [Example 187], for which, at human V1a receptor, the Ki came out at 0.66 nM.
For `C[C@@H](NC(=O)[C@@H](CC(=O)N1CCC(N2CCCCC2)CC1)N1C(=O)[C@@H](N2C(=O)OC[C@@H]2c2cccc(Cl)c2)[C@H]1/C=C/c1ccccc1)c1ccccc1` [Example 256], at human V1a receptor, the IC50 turned out to be 2.8 nM and the Ki was found to be 1.7 nM.

(Values after US9376424B2, “Methods for treating post traumatic stress disorder” (AZEVAN PHARMACEUTICALS, INC., priority 2010, dated 2016).)
